# Where two headings read alike, the source gives them in different places.
# How the values were obtained:
# [1] = tested on: HepG2 cell line; assay: In vitro toxicity study on HepG2 cell line (resazurin, viability and IC50); type: cell-based, human; details: for Viability (%) at different lipid concentrations, mean: HepG2 cells, 48 h post-treatment, relative to ethanol vehicle controls; for IC50: Homo sapiens, read-out: IC50 value, μM (on HepG2 cell)
# In short: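 HepG2 cells (1000/well) were treated after overnight incubation with lipids at 6.25–800 μM for 48 h. Viability was read by resazurin fluorescence (530/580 nm) after 5 h at 37 °C, relative to ethanol vehicle controls. IC50 values came from concentration-response curves.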
# [2] = LNP size, PDI and zeta potential by Dynamic Light Scattering (Method A); type: physicochemical; details: LNP formulated with the lipid, DLS
# Protocol: The synthesized lipids were tested in term of in vitro transfection efficacy and toxicity on HeLa cells. In order to perform the mentioned biological tests, appropriate LNPs had to be formulated from the synthesized lipids. The formulation technique was different in Method A and B. The particle size, polydispersity index (PDI) and zeta potential of resulting LNPs were determined by means of Dynamic Light Scattering technique (DLS). Prior to biological testing the encapsulation efficiency (EE) of the loaded LNPs was determined by using RiboGreen RNA assay. In case of Method A Luc mRNA while in case of Method B GFP mRNA was transfected into the cells. In parallel with the transfection experiments, toxicity of the investigated LNPs was determined, in case of Method A resazurin assay while in case of Method B MTT assay was used. Additionally, the toxicity of the lipids was investigated on HepG2 cells and IC50 values were determined.
# • 1. If needed, prepare stock solutions by solving known amounts of lipid powder into an appropriate solvent. The recommended solvent is ethanol and the recommended concentration is typically in the range 10-50 mM. Higher concentrations are preferred to allow flexibility on mRNA-LNP concentration. • 2. Remove the lipid stock solutions from the −20° C. freezer. For long-term storage, −80° C. is used. • 3. Check the vials for precipitation, DOPE (CAS #4004-05-1) (20 mM) and DSPE-PEG (CAS #474922-26-4) (5 mM) may need a 5-30 minute incubation step at 37° C. with intermittent vortexing to resuspend all contents. […] As a last resort, lipids may be heated to 50° C. to resuspend, time should be kept as short as possible to prevent oxidation or other modifying or degradative processes. • 4. Mix the lipids by vortexing for 2 minutes. • 5. […] Cooling the solution prevent excessive evaporation of ethanol or similar solvents upon opening. • 6. Meanwhile, thaw the RNA samples, including the latest SecNLuc control, by inserting the frozen tube in a room temperature aluminium block. • 7. Prepare for each LNP-formulation with identical mRNA component, an RNA master mix according to Table 1 below in a fresh tube. Use of a master mix allows more precise comparison of lipid formulations relative to each other. Split the master mix over a number of fresh tubes equal to the number of samples+controls. Each tube contains 375 μl of mRNA in 10 mM Citrate pH 4.0. • 8. Prepare for each LNP formulation with identical lipid composition a Lipid master mix according to Table 1 below in a fresh tube, exclude the lipid of interest. Use of a master mix allows more precise comparison of the novel ionizable lipid relative to each other. Split the master mix over a number of fresh tubes equal to the number of samples+controls. Each tube contains 65.5 μl of lipid master mix. • 9. Add the ionizable lipid of interest to the equally divide lipid master mix. Mix well by pipetting up and down. Label the tube according to the ionizable lipid used. • 10. Power on the L1 FM (L1 Formulation Machine uses 2 high-speed syringe pumps to mix lipids in organic solvents with mRNA in acidic aquous solution to generate well-defined LNPs. The microfluidic mixing chip involves a dean-type structure performing the high-efficiency mixing at a total flow rate (TFR) of around 12 ml/min at a 3:1 mixing ratio) and allow it to do a calibration of motor positions.
# • 18. Fill a fresh syringe (C) through a blunt 18G stainless steel needle with the previously prepared RNA mixture of step 6. The volume should be approximately 85% of total formulation volume+25 μl (dead-volume). Make sure to remove all air bubbles by tapping. • 19. Fill a fresh syringe (D) through a blunt 18G stainless steel needle with the Lipid master mix. The volume should be approximately […] of total formulation volume+25 μl (dead-volume). Again, Make sure to remove all bubbles. • 20. Attach the syringes in the correct orientation, syringe A on the left and syringe B on the right • 21.
# [3] = lipid toxicity, HepG2, 48 h post-treatment, resazurin, 6.25-800 μM
Structure (SMILES),"Viability (%) at different lipid concentrations, mean ([1]; 6.25 μM lipid, resazurin) [%]","Viability (%) at different lipid concentrations, mean ([1]; 12.5 μM lipid, resazurin) [%]","Viability (%) at different lipid concentrations, mean ([1]; 25 μM lipid, resazurin) [%]","Viability (%) at different lipid concentrations, mean ([1]; 50 μM lipid, resazurin) [%]","Viability (%) at different lipid concentrations, mean ([1]; 100 μM lipid, resazurin) [%]","Viability (%) at different lipid concentrations, mean ([1]; 200 μM lipid, resazurin) [%]","Viability (%) at different lipid concentrations, mean ([1]; 400 μM lipid, resazurin) [%]","Viability (%) at different lipid concentrations, mean ([1]; 800 μM lipid, resazurin) [%]","IC50 [1, 3] [µM]",PDI [2],Size (nm) [2] [nm],Zeta potential (mV) [2] [mV],"IC50 ([1]; HepG2, 48 h) [µM]"
"CCCCCCCC/C=C\CCCCCCCC(OCC(CCCCCC)CCCCCCCC)O[Si](C)(C)OCCCCCCN(CCO)CCO (stereo not drawn) [Example 50, (Z)-13-(heptadec-8-en-1-yl)-16-hexyl-3-(2-hydroxyethyl)-11,11-dimethyl-10,12,14-trioxa-3-aza-11-silatetracosan-1-ol]",101.0,97.6,99.0,97.9,96.0,100.0,96.5,86.8,> 800,0.022,153.8,−10.38,–
"CCCCCCCC/C=C\CCCCCCCCOC(CC[C@@H](C)C1CCC2C3CCC4C[C@H](OC)CC[C@]4(C)C3CC[C@@]21C)O[Si](C)(C)OCCCCCCN(CCO)CCO (stereo partly drawn) [Example 51, (Z)-3-(2-hydroxyethyl)-13-((3R)-3-((3R,10S,13R)-3-methoxy-10,13-dimethylhexadecahydro-1H-cyclopenta[a]phenanthren-17-yl)butyl)-11,11-dimethyl-10,12,14-trioxa-3-aza-11-siladotriacont-23-en-1-ol]",98.6,94.4,96.3,100.0,109.9,114.9,102.9,98.6,> 800,0.060,135.6,−8.124,–
"CCCCC/C=C\C/C=C\CCCCCCCCOC(CC[C@@H](C)C1CCC2C3CCC4C[C@H](OC)CC[C@]4(C)C3CC[C@@]21C)O[Si](C)(C)OCCCCCCN(CCO)CCO (stereo partly drawn) [Example 52, (23Z,26Z)-3-(2-hydroxyethyl)-13-((3R)-3-((3R,10S,13R)-3-methoxy-10,13-dimethylhexadecahydro-1H-cyclopenta[a]phenanthren-17-yl)butyl)-11,11-dimethyl-10,12,14-trioxa-3-aza-11-siladotriaconta-23,26-dien-1-ol]",101.2,101.1,104.2,120.8,112.2,76.7,5.3,−0.7,233,0.005,137.6,−9.231,–
"CCCCC/C=C\C/C=C\CCCCCCCCOC(CCCCCCC/C=C\C/C=C\CCCCC)O[Si](C)(C)OCCCCCCN1CCOCC1 (stereo not drawn) [Example 55, 4-((20Z,23Z)-10-((8Z,11Z)-heptadeca-8,11-dien-1-yl)-8,8-dimethyl-7,9,11-trioxa-8-silanonacosa-20,23-dien-1-yl)morpholine]",91.7,90.4,92.4,90.9,94.1,90.7,7.9,1.9,316,0.441,319.9,−10.81,–
"CCCCC/C=C\C/C=C\CCCCCCCCOC(CCCCCCC/C=C\C/C=C\CCCCC)O[Si](C)(C)OCCCCCCN(C)CCO (stereo not drawn) [Example 56, (23Z,26Z)-13-((8Z,11Z)-heptadeca-8,11-dien-1-yl)-3,11,11-trimethyl-10,12,14-trioxa-3-aza-11-siladotriaconta-23,26-dien-1-ol]",96.7,94.6,96.5,94.8,99.7,100.1,89.5,36.9,714,0.057,149.5,−10.08,–
"CCCCC/C=C\C/C=C\CCCCCCCCOC(CCCCCCC/C=C\C/C=C\CCCCC)O[Si](C)(C)OCCCCCCN1CCCCC1 (stereo not drawn) [Example 57, 1-((20Z,23Z)-10-((8Z,11Z)-heptadeca-8,11-dien-1-yl)-8,8-dimethyl-7,9,11-trioxa-8-silanonacosa-20,23-dien-1-yl)piperidine]",97.2,93.7,93.2,94.3,90.5,86.9,47.6,4.6,–,0.041,160.3,−11.06,401
"CCCCC/C=C\C/C=C\CCCCCCCCOC(CCCCCCC/C=C\C/C=C\CCCCC)O[Si](C)(C)OCCCCCCN1CCN(CCO)CC1 (stereo not drawn) [Example 58, 2-(4-((20Z,23Z)-10-((8Z,11Z)-heptadeca-8,11-dien-1-yl)-8,8-dimethyl-7,9,11-trioxa-8-silanonacosa-20,23-dien-1-yl)piperazin-1-yl)ethan-1-ol]",104.2,97.0,102.1,101.2,104.1,101.6,40.3,3.8,375,0.011,160.6,−11.86,–
